The test system of test [1] is C. beijerinckii DSM 6423 ΔcatB. In kind it is cell-based.
A further test concerns C. beijerinckii DSM 6423. The class given is cell-based.

Turning to `CS(=O)(=O)c1ccc([C@@H](O)[C@@H](CO)NC(=O)C(Cl)Cl)cc1` [thiamphenicol], the results for the “Growth on thiamphenicol-supplemented medium” value (in test [1]; with C. beijerinckii DSM 6423) were “only the initial C. beijerinckii DSM 6423 strain is able to grow” and “able to grow”, respectively.

These data come from patent publication US20230109758A1 (priority 2018, published 2023).
